The assay has as its system ATF2 phosphorylation at Thr69/71 (target of RSK, JNK1, p38 MAPK) and eIF4B S422 (target of RSKs). Description: Immunoblot of ATF2 and eIF4B phosphorylation in TamR cells. In kind it is cell-based, human. The note with it: 10 μM for 6 hours. The procedure: Hsp70 (loading control). […] Cells were treated with DMSO, 1 μM 4-OH Tam, 4-OH Tam and CGP 57380 (10 μM), or 1 μM 4-OH Tam, CGP57380, and 20 nM RAD001 therapies 24 hours after plating. Treatment was changed every 72 hours. Colonies were scored after 10 days counting only >50 cells/colony. Results are representative of three independent experiments. SEM is shown. […] Results from three independent experiments. Error bars represent SEM (n.s.=not significant). […] Equal amounts of RNA were resolved by sucrose gradient centrifugation and ribosome profiles monitored by UV absorbance 254 nm. Results are representative images of two independent experiments.
Immunoblot Studies: In brief, cells were lysed in NP-40 buffer (50 mM HEPES, pH 7.0, 150 mM NaCl, 2 mM EDTA, 25 mM NaF, 25 mM β-glycerophosphate, 2 mM Na3VO4, 1% IGEPAL, and Complete Mini protease inhibitor cocktail tablet+/−EDTA; Roche) or RIPA lysis buffer (1% Triton X-100, 1% sodium deoxycholate, 0.1% SDS, 150 mM NaCl, 50 mM Tris, pH 7.4, 2 mM Na3VO4, 25 mM β-glycerophosphate, 15 mM NaF, and complete protease inhibitor mix; Roche) and lysate cleared by centrifugation at 13,000 rpm for 10 minutes at 4° C. Lysate protein concentration was determined for each sample using BCA assay. […] Quantitation was performed by determination of the integrated density of the bands using ImageJ software. […]
Background: Immunoblotting shows a protein as a band on a membrane.

Structures are written as SMILES.

With `Nc1ncnc2n[nH]c(Nc3ccc(F)cc3)c12` [CGP57380], the “phosphorylation of ATF2 Thr69/71 and eIF4B S422” value is on record as “no change in phosphorylation”.

The record behind these values is patent US11135224B2, “Methods of sensitizing estrogen receptor positive (ER+) breast cancer cells to endocrine therapy” (New York University, priority 2018, dated 2021).
